The values below are quoted from earlier work in patent US20080015265A1, “Methods of treating obesity using satiety factors” (priority 2006, published 2008).

Where two headings read alike, the source gives them in different places. Where no end group is shown, it is not given here.

The conditions of data set [1]: for food intake (feeding) / weight gain: rats and/or mice.
For data set [2] the following is noted: species not stated.
The conditions of data set [3]: for food intake: several species including humans.
The conditions of data set [4]: human subjects; peripheral or intravenous administration.

With “galanin-like peptide (APAHRGRGGWTLNSAGYLLGPVLHLPQMGDQDGKRETALEILDLWKAIDGLPYSHPPQPS; Galanin-like peptide; UniProt Q9UBC7 25-84, looked up)”, the “food intake (feeding)” value in data set [1] is listed as “stimulate food intake”.

Regarding “galanin (GWTLNSAGYLLGPHAVGNHRSFSDKNGLTS; Galanin; UniProt P22466 33-62, looked up)”, the “food intake (feeding)” value in data set [1] is listed as “stimulate food intake”.

With neuropeptide Y, the food intake result (animals) is recorded as “stimulate food intake”.

With “NPW: ligand for orphan G protein-coupled receptors (WYKHVASPRYHTVGRAAGLLMGL; Neuropeptide W-23; UniProt Q8N729 33-55, looked up)”, the food intake result (animals) is reported as “stimulate food intake”.

With “amylin (KCNTATCATQRLANFLVHSSNNFGAILSSTNVGSNTY; not fully specified (C-terminus, bridges); cysteine pairing not given here; UniProt P10997 34-70, looked up) [37 amino acid peptide released by the β cells of the pancreas]”, in data set [2], the “body weight (weight loss / weight gain)” value is given as “sustained weigh loss” and the food intake result is “decreased food intake”.

Regarding “somatostatin (AGCKNFFWKTFTSC; ends and bridges not checked; cysteine pairing not given here; UniProt P61278 103-116, looked up)”, the food intake result (animals) is given as “reduce food intake”.

For the molecule “motilin (FVPIFTYGELQRMQEKERNKGQ; Motilin; UniProt P12872 26-47, looked up) [polypeptide hormone secreted by Mo cells of the small intestine]”, the gastrointestinal motility entry in data set [2] is “increase the gastrointestinal motility”.

On to “ghrelin (GSSFLSPEHQRVQQRKESKKPPAKLQPR; ends and bridges not checked; also: octanoyl acylation; UniProt Q9UBU3 24-51, looked up) [28 amino acid acylated peptide produced mainly by the stomach]”, for which, in data set [3] (rodents and persons), the body weight result is listed as “increase body weight” and the fat oxidation result is given as “reducing fat oxidation”. Moreover, in data set [3], the food intake result is on record as “stimulating food intake”.

For the molecule PYY3-36, in data set [1], the “food intake (feeding)” value is on record as “inhibits food intake” and the weight gain entry was “reduced weigh gain”. Besides, the food intake entry in data set [4] was “significant food intake reduction”.

For the molecule dynorphin, the food intake result (animals) is reported as “stimulate food intake”.

Consider “Glucagon-like peptide-1 (7-36)-amide (HAEGTFTSDVSSYLEGQAAKEFIAWLVKGR-NH2; UniProt P01275 98-127, looked up) [GLP-1]”, for which, in data set [4], the food intake entry is “reduce food intake” and the hunger / appetite result is reported as “suppress hunger”.

As for “oxyntomodulin (HSQGTFTSDYSKYLDSRRAQDFVQWLMNTKRNRNNIA; Oxyntomodulin; UniProt P01275 53-89, looked up) [37 amino acid peptide, product of the proglucagon gene]”, the energy intake result in data set [3] (administered to rodents and humans) was “reduce energy intake”.

As to leptin, in data set [2], the “body weight (weight loss / weight gain)” value is “decrease food intake and body weigh”; the food intake result is “decrease food intake”.

“bombesin [bombesin or bombesin-like peptide]”: the food intake entry in data set [3] is listed as “Feed suppression”.

On to prolactin-releasing peptide, for which, where the note is “animals”, the food intake entry is reported as “increase food intake”.

Regarding “corticotropin-releasing hormone (SEEPPISLDLTFHLLREVLEMARAEQLAQQAHSNRKLMEII; ends and bridges not checked; UniProt P06850 154-194, looked up)”, the food intake result (animals) is “reduce food intake”.

Consider `C=CC1=C(C)c2cc3[nH]c(cc4nc(cc5[nH]c(cc1n2)c(C)c5CCC(=O)O)C(CCC(=O)O)=C4C)c(C)c3C=C` [protoporphyrin], for which, in data set [2], the “body weight (weight loss / weight gain)” value was “decrease food intake and body weight”; the food intake result was “decrease food intake”.

As for “neuropeptide B (WYKPAAGHSSYSVGRAAGLLSGLRRSPYA; Neuropeptide B-29; UniProt Q8NG41 25-53, looked up) [ligand for orphan G protein-coupled receptors]”, the food intake result (animals) was “stimulate food intake”.

As to hypocretins/orexins, the appetite entry in data set [1] (rats) is recorded as “stimulate appetite”. The “food intake (feeding)” value in data set [1] is “stimulate appetite and food intake”.

As to beacon, under “animals”, the food intake entry was “stimulate food intake”; the weight gain entry is “stimulate food intake and weight gain”.

Take “urocortin (DNPSLSIDLTFHLLRTLLELARTQSQRERAEQNRIIFDSV; ends and bridges not checked; UniProt P55089 83-122, looked up)”: the “food intake (feeding)” value in data set [1] is “reduces feeding”. In data set [1] (rats, infused), the drinking result is “reduces feeding and drinking”.

For the molecule enterostatin, the dietary fat preference result in data set [1] (mammals, demonstrated in rodent studies) is on record as “reduce dietary fat preference”.

For obestatin, in data set [1] (rats), the jejunal contraction result is “inhibited jejunal contraction”. Further, in data set [1], the “food intake (feeding)” value is reported as “suppressed food intake” and the weight gain entry is listed as “decreased body weigh gain”.

Regarding neurotensin, the food intake entry in data set [2] was “decrease food intake”.

Regarding β casomorphin, the food intake result is listed as “increase food intake” (animals with a high fat diet) and “decrease food intake” (animals with a low fat diet).

For the molecule “vasopressin (CYFQNCPRG; ends and bridges not checked; cysteine pairing not given here; UniProt P01185 20-28, looked up)”, the food intake entry (animals) is recorded as “reduce food intake”.

As to `O=C1N[C@@H](Cc2cnc[nH]2)C(=O)N2CCC[C@@H]12` [cyclo-his-pro], the food intake result in data set [2] is “reduce food intake”.

As for `CC[C@H](C)[C@H](NC(=O)[C@@H]1CCCN1C(=O)CNC(=O)[C@H](Cc1ccccc1)NC(=O)[C@H](CC(N)=O)NC(=O)[C@H](CC(N)=O)NC(=O)[C@H](CO)NC(=O)[C@H](CO)NC(=O)[C@H](Cc1c[nH]cn1)NC(=O)[C@@H](NC(=O)[C@H](CC(C)C)NC(=O)[C@H](Cc1ccccc1)NC(=O)[C@H](CC(N)=O)NC(=O)[C@H](C)NC(=O)[C@H](CC(C)C)NC(=O)[C@H](CCCNC(=N)N)NC(=O)[C@H](CCC(N)=O)NC(=O)[C@@H](NC(=O)[C@H](C)NC(=O)[C@@H]1CSSC[C@H](NC(=O)[C@@H](N)CCCCN)C(=O)N[C@@H](CC(N)=O)C(=O)N[C@@H]([C@@H](C)O)C(=O)N[C@@H](C)C(=O)N[C@@H]([C@@H](C)O)C(=O)N1)[C@@H](C)O)C(C)C)C(=O)N[C@@H](CC(C)C)C(=O)N1CCC[C@H]1C(=O)N1CCC[C@H]1C(=O)N[C@H](C(=O)N[C@@H](CC(N)=O)C(=O)N[C@H](C(=O)NCC(=O)N[C@@H](CO)C(=O)N[C@@H](CC(N)=O)C(=O)N[C@H](C(=O)N[C@@H](Cc1ccc(O)cc1)C(N)=O)[C@@H](C)O)C(C)C)[C@@H](C)O` [pramlintide, reference compound], in data set [2], the “body weight (weight loss / weight gain)” value is “sustained weigh loss” and the food intake entry is “decreased food intake”.

Regarding “growth hormone-releasing hormone (YADAIFTNSYRKVLGQLSARKLLQDIMSRQQGESNQERGARARL; ends and bridges not checked; UniProt P01286 32-75, looked up)”, in data set [2], the “body weight (weight loss / weight gain)” value is “stimulate food intake and weight gain”; the food intake entry is recorded as “stimulate food intake”.

As for oxytocin, the food intake result (animals) is reported as “increase food intake”.

As to “neuropeptide K (DADSSIEKQVALLKALYGHGQISHKRHKTDSFVGLM; ends and bridges not checked; UniProt P20366 72-107, looked up)”, the food intake entry (animals) is reported as “inhibit food intake”.

B1: apolipoprotein A-IV (protein, UniProt P06727 21-396, looked up)
Apolipoprotein A-IV: EVSADQVATVMWDYFSQLSNNAKEAVEHLQKSELTQQLNALFQDKLGEVNTYAGDLQKKLVPFATELHERLAKDSEKLKEEIGKELEELRARLLPHANEVSQKIGDNLRELQQRLEPYADQLRTQVSTQAEQLRRQLTPYAQRMERVLRENADSLQASLRPHADELKAKIDQNVEELKGRLTPYADEFKVKIDQTVEELRRSLAPYAQDTQEKLNHQLEGLTFQMKKNAEELKARISASAEELRQRLAPLAEDVRGNLRGNTEGLQKSLAELGGHLDQQVEEFRRRVEPYGENFNKALVQQMEQLRQKLGPHAGDVEGHLSFLEKDLRDKVNSFFSTFKEKESQDKTLSLPELEQQQEQQQEQQQEQVQMLAPLES
notes: non-gut peptide satiety factor
As to B1, the food intake result (animals) is recorded as “dose dependent reduction of food intake”.

B2: nesfatin (protein, UniProt P80303 25-106, looked up)
Nesfatin-1: VPIDIDKTKVQNIHPVESAKIEPPDTGLYYDEYLKQVIDVLETDKHFREKLQKADIEEIKSGRLSKELDLVSHHVRTKLDEL
modifications: Nesfatin-1
notes: produced by the brain
As to B2, under “animals”, the food intake entry is “reduce food intake in a dose-dependent manner”.

B3: cholecystokinin (peptide, UniProt P06307 21-115, looked up)
Cholecystokinin: QPVPPADPAGSGLQRAEEAPRRQLRVSQRTDGESRAHLGALLARYIQQARKAPSGRMSIVKNLQNLDPSHRISDRDYMGWMDFGRRSAEEYEYPS
notes: gut peptide released mainly in response to dietary fat
Regarding B3, the food intake entry in data set [3] is listed as “dose-dependent inhibition of food intake”.

B4: ciliary neurotrophic factor (protein, UniProt P26441 1-200, looked up)
Ciliary neurotrophic factor: MAFTEHSPLTPHRRDLCSRSIWLARKIRSDLTALTESYVKHQGLNKNINLDSADGMPVASTDQWSELTEAERLQENLQAYRTFHVLLARLLEDQQVHFTPTEGDFHQAIHTLLLQVAAFAYQIEELMILLEYKIPRNEADGMPINVGDGGLFEKKLWGLKVLQELSQWTVRSIHDLRFISSHQTGIPARGSHYIANNKKM
Turning to B4, in data set [2], the “body weight (weight loss / weight gain)” value is recorded as “cause weigh loss”.
